Patent US20080181942A1, “Delta-9-THC compositions and methods for treating symptoms associated with multiple sclerosis” (University of Plymouth, priority 2006, published 2008)

Tests used:
[1] = tested on: patients with multiple sclerosis; experiment: category-rating scales, patient reporting of secondary outcomes; format: in vivo, human; conditions: category rating scale
[2] = tested on: patients with multiple sclerosis with problematic spasticity; experiment: Ashworth score of spasticity, randomized placebo-controlled study; format: in vivo, human; conditions: baseline to 13 weeks follow-up (visit 7)
[3] = tested on: patients with multiple sclerosis; experiment: patient assessment of treatment benefit at visit 8; format: in vivo, human
[4] = tested on: patients with multiple sclerosis; experiment: adverse events reported by patients

In the case of CCCCCc1cc(O)c2c(c1)OC(C)(C)[C@@H]1CCC(C)=C[C@@H]21 (relative stereo) [delta-9-THC, (6aR-trans)-6a,7,8,10a-tetrahydro-6,6,9-trimethyl-3-pentyl-6H-dibenzo[b,d]pyran-1-ol], the “Depression: Deterioration” value ([1]; number of patients) is reported as 42, the “Depression: Improvement” value ([1]; number of patients) is reported as 36 and the “Depression: Same” value ([1]; number of patients) is reported as 47. The “Energy: Deterioration” value ([1]; number of patients) was 49, the “Energy: Improvement” value ([1]; number of patients) was 61 and the “Energy: Same” value ([1]; number of patients) was 63. The “Irritability: Deterioration” value ([1]; number of patients) was 32, the “Irritability: Improvement” value ([1]; number of patients) was 37 and the “Irritability: Same” value ([1]; number of patients) was 42. For the same molecule, the “Pain: Deterioration” value ([1]; number of patients) was 22, the “Pain: Improvement” value ([1]; number of patients) was 64 and the “Pain: Same” value ([1]; number of patients) was 43. For the same molecule, the “Shake/tremor: Deterioration” value ([1]; number of patients) was 32, the “Shake/tremor: Improvement” value ([1]; number of patients) was 52 and the “Shake/tremor: Same” value ([1]; number of patients) was 44. The “Sleep: Deterioration” value ([1]; number of patients) was 24, the “Sleep: Improvement” value ([1]; number of patients) was 71 and the “Sleep: Same” value ([1]; number of patients) was 57. The “Spasms: Deterioration” value ([1]; number of patients) was 27, the “Spasms: Improvement” value ([1]; number of patients) was 81 and the “Spasms: Same” value ([1]; number of patients) was 49. The “Spasticity: Deterioration” value ([1]; number of patients) was 47, the “Spasticity: Improvement” value ([1]; number of patients) was 89 and the “Spasticity: Same” value ([1]; number of patients) was 40. The “Tiredness: Deterioration” value ([1]; number of patients) was 76, the “Tiredness: Improvement” value ([1]; number of patients) was 35 and the “Tiredness: Same” value ([1]; number of patients) was 46. For the same molecule, the “Depression: Deterioration” value ([1]; percent of patients) was “(34%)”, the “Depression: Improvement” value ([1]; percent of patients) was “(29%)” and the “Depression: Same” value ([1]; percent of patients) was “(38%)”. The “Energy: Deterioration” value ([1]; percent of patients) was “(28%)”, the “Energy: Improvement” value ([1]; percent of patients) was “(35%)” and the “Energy: Same” value ([1]; percent of patients) was “(36%)”. The “Irritability: Deterioration” value ([1]; percent of patients) was “(29%)”, the “Irritability: Improvement” value ([1]; percent of patients) was “(33%)” and the “Irritability: Same” value ([1]; percent of patients) was “(38%)”. The “Pain: Deterioration” value ([1]; percent of patients) was “(17%)”, the “Pain: Improvement” value ([1]; percent of patients) was “(50%)” and the “Pain: Same” value ([1]; percent of patients) was “(33%)”. The “Shake/tremor: Deterioration” value ([1]; percent of patients) was “(25%)”, the “Shake/tremor: Improvement” value ([1]; percent of patients) was “(41%)” and the “Shake/tremor: Same” value ([1]; percent of patients) was “(34%)”. For the same molecule, the “Sleep: Deterioration” value ([1]; percent of patients) was “(16%)”, the “Sleep: Improvement” value ([1]; percent of patients) was “(47%)” and the “Sleep: Same” value ([1]; percent of patients) was “(38%)”. The “Spasms: Deterioration” value ([1]; percent of patients) was “(22%)”, the “Spasms: Improvement” value ([1]; percent of patients) was “(49%)” and the “Spasms: Same” value ([1]; percent of patients) was “(29%)”. For the same molecule, the “Spasticity: Deterioration” value ([1]; percent of patients) was “(27%)”, the “Spasticity: Improvement” value ([1]; percent of patients) was “(51%)” and the “Spasticity: Same” value ([1]; percent of patients) was “(23%)”. For the same molecule, the “Tiredness: Deterioration” value ([1]; percent of patients) was “(48%)”, the “Tiredness: Improvement” value ([1]; percent of patients) was “(22%)” and the “Tiredness: Same” value ([1]; percent of patients) was “(29%)”. For the same molecule, the “Mean (SD) change in Ashworth score, upper-body muscle groups (baseline minus follow-up)” value [2] was 0.48 (4.70), the “Symptom Improvement, Bladder: No” value ([3]; number of patients) was 97 and the “Symptom Improvement, Bladder: Yes” value ([3]; number of patients) was 67. For the same molecule, the “Symptom Improvement, Pain: No” value ([3]; number of patients) was 64, the “Symptom Improvement, Pain: Yes” value ([3]; number of patients) was 64 and the “Symptom Improvement, Spasticity: No” value ([3]; number of patients) was 73. The “Symptom Improvement, Tremor: No” value ([3]; number of patients) was 67, the “Symptom Improvement, Tremor: Yes” value ([3]; number of patients) was 44 and the “Symptom Improvement, Bladder: No” value ([3]; percent of patients) was 59%. The “Symptom Improvement, Bladder: Yes” value ([3]; percent of patients) was 40%, the “Symptom Improvement, Pain: No” value ([3]; percent of patients) was 50% and the “Symptom Improvement, Pain: Yes” value ([3]; percent of patients) was 50%. For the same molecule, the “Symptom Improvement, Spasticity: No” value ([3]; percent of patients) was 40%, the “Symptom Improvement, Spasticity: Yes” value ([3]; percent of patients) was 60% and the “Symptom Improvement, Tremor: No” value ([3]; percent of patients) was 60%. For the same molecule, the “Symptom Improvement, Tremor: Yes” value ([3]; percent of patients) was 40%, the “incidences of MS relapse” value ([4]; by comparison with placebo) was “greatly reduced” and the “Adverse Event: Blocked/insertion of suprapubic catheter” value ([4]; number reported) was 0. The “Adverse Event: Constipation” value ([4]; number reported) was 0, the “Adverse Event: Grand mal seizure” value ([4]; number reported) was 0 and the “Adverse Event: MS relapse or possible relapse” value ([4]; number reported) was 1. The “Adverse Event: Other” value ([4]; number reported) was 11, the “Adverse Event: Pneumonia” value ([4]; number reported) was 2 and the “Adverse Event: Urinary tract infection” value ([4]; number reported) was 3.
